According to ChEMBL document CHEMBL1201862, “PubChem BioAssay data set” (2004):
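All cell lines were grown in 96-well plates and treated with compound for 48 hours. Here, GI50 denotes the concentration required for 50% inhibition of growth.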 Active and inactive are the calls of the source. No stated cut-off is given here; in the data, active = GI50 up to about 1.1 µM and inactive = higher.

Columns and labels:
Experiment in all cases: inhibition of tumour cell growth, NCI panel, 48 h
A549 = test system: A549
ACHN = test system: ACHN
CCRF-CEM = test system: CCRF-CEM
DU-145 = test system: DU-145
HCC 2998 = test system: HCC 2998
HT-29 = test system: HT-29
KM12 = test system: KM12
NCI-H226 = test system: NCI-H226
NCI-H23 = test system: NCI-H23
NCI-H460 = test system: NCI-H460
NCI-H522 = test system: NCI-H522
OVCAR-3 = test system: OVCAR-3
SF-268 = test system: SF-268
SF-295 = test system: SF-295
SW-620 = test system: SW-620
T47D = test system: T47D
TK-10 = test system: TK-10
SK-OV-3 = test system: SK-OV-3
SR = test system: SR

Measured: GI50

COc1cc2c3c([nH]c2c(OC)c1OC)CCN(Cc1ccccc1)C3
inactive: A549 86.7 µM | ACHN 47.8 µM | CCRF-CEM 17.7 µM | DU-145 > 100 µM | HCC 2998 17.9 µM | HT-29 11.4 µM | KM12 > 100 µM | NCI-H226 20.9 µM | NCI-H23 33.1 µM | NCI-H460 14.9 µM | NCI-H522 > 100 µM | OVCAR-3 64.6 µM | SF-268 62.5 µM | SF-295 30.8 µM | SW-620 1.95 µM | T47D 24.8 µM | TK-10 21.7 µM

CNC(=O)CN(CC(N)=O)C(=O)NC
inactive: A549 > 100 µM | ACHN > 100 µM | CCRF-CEM > 100 µM | HCC 2998 > 100 µM | HT-29 > 100 µM | KM12 > 100 µM | NCI-H226 > 100 µM | NCI-H23 > 100 µM | NCI-H460 > 100 µM | NCI-H522 > 100 µM | OVCAR-3 > 100 µM | SF-268 > 100 µM | SF-295 > 100 µM | SK-OV-3 > 100 µM | SR > 100 µM | SW-620 > 100 µM | TK-10 > 100 µM

Cc1ccc(S(=O)(=O)n2c(-c3ccccc3)c(-c3ccccc3)c3ccccc32)cc1
inactive: A549 > 100 µM | ACHN > 100 µM | CCRF-CEM > 100 µM | HCC 2998 > 100 µM | HT-29 > 100 µM | KM12 > 100 µM | NCI-H226 > 100 µM | NCI-H23 17.7 µM | NCI-H460 > 100 µM | NCI-H522 > 100 µM | OVCAR-3 > 100 µM | SF-268 > 100 µM | SF-295 97.5 µM | SK-OV-3 5.32 µM | SR 7.31 µM | SW-620 > 100 µM | TK-10 > 100 µM

COC(=O)C(CCCCCCCC(C(=O)OC)C1=Nc2nnc(N)n2C1=O)C1=Nc2nnc(N)n2C1=O (stereo not drawn)
inactive: A549 > 100 µM | ACHN > 100 µM | CCRF-CEM > 100 µM | HCC 2998 > 100 µM | HT-29 > 100 µM | KM12 > 100 µM | NCI-H226 > 100 µM | NCI-H23 > 100 µM | NCI-H460 > 100 µM | NCI-H522 > 100 µM | OVCAR-3 > 100 µM | SF-268 > 100 µM | SF-295 61.9 µM | SK-OV-3 > 100 µM | SR > 100 µM | SW-620 > 100 µM | TK-10 > 100 µM
